Test results published in PubChem BioAssay AID434987 (Southern Research Specialized Biocontainment Screening …, 2010).
Active and inactive are the calls of the source. No rule for the calls is given here.

Test system: M. tuberculosis H37Rv growth inhibition with meropenem
Assay: dose response, H37Rv, with and without meropenem (AID 434987);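 also: growth over 7 days at 37 °C before Alamar Blue read on day 9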
[1] = M. tuberculosis H37Rv growth inhibition, measured here: IC50 without meropenem
[2] = M. tuberculosis H37Rv growth inhibition, measured here: IC90 without meropenem
[3] = measured here: IC90 with meropenem

SMILES	IC50	IC50 [1] [µM]	IC90 [2] [µM]	IC90 [3] [µM]
O=C(Nc1ccc(F)cc1)c1sc2cc(C(F)(F)F)cnc2c1-c1cccs1	> 100 µM (inactive)	> 100	> 100	> 100
CO/N=C(\C(=O)N[C@@H]1C(=O)N2C(C(=O)O)=C(COC(C)=O)CS[C@H]12)c1csc(N)n1 (stereo in doubt)	10.3 µM	> 100	> 100	41.7
CCOc1ccccc1C(=O)Nc1cccc(-c2ccc3nncn3n2)c1	65.3 µM (inactive)	> 100	> 100	> 100
COc1cc(C(=O)Nc2cccc(-c3cn4cccnc4n3)c2)cc(OC)c1OC	10.9 µM	35	> 100	30.2
CCc1cc2c(=O)nc3n(c2s1)Cc1ccccc1/C3=C(/O)c1ccc(F)cc1	> 100 µM (inactive)	> 100	> 100	> 100
Fc1ccc(-c2csc(NC(=S)Nc3ccccc3)n2)cc1	7.55 µM	> 100	> 100	> 50
Cc1ccc(C)c(NC(=O)COC(=O)c2ccc(S(=O)(=O)N3CCCCC3)cc2)c1	> 100 µM (inactive)	> 100	> 100	> 100
Cc1cc(Br)ccc1NC(=O)CN1C(=O)C2CC=CCC2C1=O (stereo not drawn)	1 µM	8.65	26.7	38.7
O=C(CSc1nnc(-c2cnccn2)n1Cc1ccco1)Nc1ccc(Br)cc1	44.2 µM (inactive)	> 100	> 100	> 100
CNC(=S)N/N=C(\C)c1ccc(Cl)c(Cl)c1	> 100 µM (inactive)	> 100	> 100	> 100
Cc1ccc(S(=O)(=O)NCCCCCC(=O)Nc2nccs2)cc1	> 100 µM (inactive)	> 100	> 100	> 100
NC(=O)[C@@H]1CC2(CC(c3cccc(NC(=O)COc4ccc(Cl)cc4)c3)=NO2)CN1C(=O)COc1ccc(Cl)cc1 (stereo partly drawn)	75.4 µM (inactive)	> 100	> 100	> 100
CCOC(=O)CNC(=O)CSc1ncnc2c1cnn2Cc1ccccc1	> 100 µM (inactive)	> 100	> 100	> 100
Cc1ccccc1C(=O)NC(=S)Nc1sc2c(c1C#N)CCC(C)C2 (stereo not drawn)	> 100 µM (inactive)	> 100	> 100	> 100
COc1ccc(NC(=O)C(Cc2ccccc2)n2cccc2)c(OC)c1 (stereo not drawn)	13.6 µM	47.5	> 100	> 100
O=C1COc2ccc(C(=O)CCl)cc2N1	25.7 µM (inactive)	24.7	27	44.4
O=C(COc1cccc2cccnc12)N/N=C/c1ccc(O)cc1	27 µM	> 100	> 100	> 50
CCSc1nnc(NC(=O)C2Cc3ccccc3CN2C(=O)c2ccco2)s1 (stereo not drawn)	2.69 µM	> 100	> 100	> 100
CC(OC(=O)c1ccc([N+](=O)[O-])o1)C(=O)NC1CCCCC1C (stereo not drawn)	15.6 µM (inactive)	26.3	70.6	> 100

SMILES	IC50	IC50 [1] [µM]	IC90 [2] [µM]	IC90 [3] [µM]
O=C(COc1ccc(Cl)cc1)OCC(=O)N1CCCCCC1	45.5 µM (inactive)	> 100	> 100	> 100
O=C(COc1ccccc1)Nc1cccc(-c2nnc(-c3ccccc3)o2)c1	> 100 µM (inactive)	> 100	> 100	> 100
COC(=O)N1C(=O)[C@](Cc2ccccc2)(c2ccccc2)N1C(=O)OC	> 100 µM (inactive)	> 100	> 100	> 100
COc1ccc(NC(C)C(=O)N/N=C/c2ccc([N+](=O)[O-])s2)cc1 (stereo not drawn)	2.17 µM (inactive)	3.12	4.8	4.79
CC(=O)n1cc([C@@H]2C=C(C(=O)N3CCN(Cc4ccc5c(c4)OCO5)CC3)O[C@H](OCCCCO)C2)c2ccccc21	> 100 µM (inactive)	84	> 100	> 100
Cc1ccccc1NC(=O)c1ccc(CN(c2ccccc2)S(=O)(=O)c2ccccc2)cc1	> 100 µM (inactive)	> 100	> 100	> 100
CCCCn1nc2cc(C(=O)NCC34CC5CC(CC(C5)C3)C4)ccc2c1OCC	55.5 µM (inactive)	> 100	> 100	> 100
C(=N\n1cnnc1)/c1ccc(-c2ccccc2)cc1	> 100 µM (inactive)	> 100	> 100	> 100
CC(=O)C1=C(C)NC(SCC(=O)c2ccccc2)=C(C#N)C1CC(C)C (stereo not drawn)	51.8 µM (inactive)	88.5	> 100	> 100
Cc1c(-c2ccccc2)sc(Br)c1C(=O)N1CCOCC1	> 100 µM (inactive)	> 100	> 100	> 100
CC(C)CC(=O)NC(=S)Nc1ccc(N2CCN(C(=O)c3cccs3)CC2)cc1	> 100 µM (inactive)	> 100	> 100	> 100
COc1ccc(-c2csc(/C=C/c3ccc4c(c3)OCO4)n2)cc1OC	16.1 µM	> 100	> 100	> 100
COc1cc2c(C(=O)N3CCN(c4ccccc4C)CC3)c(C)oc2cc1Br	> 100 µM (inactive)	> 100	> 100	> 100
CCN(CC(=O)Nc1ccc2c(c1)OCCO2)C(=O)c1ccc([N+](=O)[O-])s1	23.6 µM (inactive)	26.7	50.7	26
CCC(CC)c1nnc(NC(=O)c2cc(-c3ccccc3)nc3ccccc23)s1	> 100 µM (inactive)	> 100	> 100	> 100
COc1ccc(-n2cc(-c3ccccc3)c3c(NN4CCOCC4)ncnc32)cc1	22.4 µM (inactive)	32.8	60.3	36.1
O=C(NNC(=O)c1cc(OCC(F)(F)F)ccc1OCC(F)(F)F)c1cccc(C(F)(F)F)c1	> 100 µM (inactive)	> 100	> 100	> 100
COc1ccc(C(=O)/C=C/c2ccc(O)cc2)c(O)c1CC=C(C)C	54.3 µM (inactive)	64.8	98.4	75.1
c1ccc(-c2cc(N3CCOCC3)nc3ccccc23)cc1	2.78 µM	> 100	> 100	91.5

SMILES	IC50	IC50 [1] [µM]	IC90 [2] [µM]	IC90 [3] [µM]
COc1ccc(-c2nc(-c3cccc(C)c3)no2)cc1OC	> 100 µM (inactive)	> 100	> 100	> 100
Cc1ccc(C(=O)NCCc2nnc3ccc(SCC(=O)Nc4ccccc4C)nn23)cc1	> 100 µM (inactive)	> 100	> 100	> 100
NC(=S)N/N=C/c1ccc2ccccc2c1	2.02 µM	> 100	> 100	> 100
Cc1cc2c(=O)oc(-c3ccc(Br)cc3)nc2s1	> 100 µM (inactive)	> 100	> 100	> 100
N#Cc1ccc(NC(=O)COC(=O)C2=COCCO2)cc1	> 100 µM (inactive)	> 100	> 100	> 100
CCOC(=O)N1CCC(N2CCN(S(=O)(=O)c3ccc(Cl)cc3)CC2)CC1	> 100 µM (inactive)	> 100	> 100	> 100
Clc1ccc(-c2csc3ncnc(N4CCc5ccccc5C4)c23)cc1	95.4 µM (inactive)	> 100	> 100	> 100
CCOC(=O)c1c(C)n(-c2ccccc2)c2ccc(OCCN(C)C)cc12	5.45 µM	62	> 100	21.7
COCCNC(=O)COc1ccc(Oc2ccccc2)cc1	49.5 µM (inactive)	> 100	> 100	> 100
CCOC(=O)N1CCN(C(=O)CSc2nnc(COc3ccccc3)o2)CC1	7.33 µM	21.5	72.9	18.4
Cc1cc(=S)nc(-c2ccccn2)[nH]1	13.1 µM	48.3	50.4	19.7
COc1cccc(-c2nnn(CC(=O)Nc3cc(OC)c(NC(=O)c4ccco4)cc3OC)n2)c1	31.2 µM	> 100	> 100	> 100
COc1ccc(NCC(=O)N/N=C/C(C)c2ccccc2)cc1 (stereo not drawn)	> 100 µM (inactive)	> 100	> 100	> 100
CCOC(=O)c1ccc(-c2ccc(C=O)o2)cc1	29.1 µM (inactive)	44.6	> 100	> 100
C=CCNCCCOc1ccc(Cl)cc1C(C)(C)C	48.1 µM (inactive)	58.2	72.3	52.6
O=C(NC1CCCC1)c1ccccc1OCc1ccccc1	5.69 µM	37.6	> 100	> 100
O=C(N/N=C/C(Br)=C\c1ccccc1)c1ccc2nc[nH]c2c1	30.4 µM	> 100	> 100	> 100
O=C(O/N=C\c1ccc(N2CCCCC2)c([N+](=O)[O-])c1)c1c(F)cccc1F	> 100 µM (inactive)	> 100	> 100	> 100
O=C(N/N=C/c1c(O)n(Cc2ccc(F)cc2)c(=S)[nH]c1=O)c1ccncc1	7.75 µM (inactive)	11.5	12.9	9.8
